Test results: patent publication US10184933B2, “Compositions, systems and methods for gene expression noise drug screening and uses thereof” (priority 2013, dated 2019)
Counter-ions that a name gives are not always drawn. Like-named read-outs stand apart in the source and are kept apart here.

Legend:
[1] = system: latent HIV-1 in JLat 8.6 cells; assay type: cell-based
[2] = system: HIV-1 LTR promoter; assay type: cell-based
[3] = Pharmakon 1600 library, 10 uM, 24 hours, FIG. 10

Compound	synergy in reactivation of HIV-1 latency [1]	identified as variability enhancer (VE) in noise screen [2]	identified as variability enhancer (VE) in noise screen [2, 3]	identified as variability suppressor (VS) in noise screen ([2]; Pharmakon 1600 library, 10 uM, 24 hours, FIG. 12)
COc1ccc(CCN(C)CCCC(C#N)(c2ccc(OC)c(OC)c2)C(C)C)cc1OC (racemic) [V24, (±)-Verapamil hydrochloride]	synergized	–	–	–
CC(C)NCC(O)c1ccc(O)c(O)c1.Cl (racemic) [V86, (±)-Isoproterenol hydrochloride]	synergized	variability enhancers	–	–
C=CCC1(C(C)CCC)C(=O)N=C(S)NC1=O (centres unmarked) [V8, thiamylal sodium]	synergized	–	variability enhancers	–
NNc1nncc2ccccc12 [V17, hydralazine hydrochloride]	synergized	variability enhancers	–	–
COc1ccc2c(c1)c(CC(=O)O)c(C)n2C(=O)c1ccc(Cl)cc1 [V18, Indomethacin]	synergized	–	variability enhancers	–
CC(C)c1c(C(=O)Nc2ccccc2)c(-c2ccccc2)c(-c2ccc(F)cc2)n1CC[C@@H](O)C[C@@H](O)CC(=O)[O-].CC(C)c1c(C(=O)Nc2ccccc2)c(-c2ccccc2)c(-c2ccc(F)cc2)n1CC[C@@H](O)C[C@@H](O)CC(=O)[O-].[Ca+2] [V20, atorvastatin calcium]	synergized	variability enhancers	–	–
CC(C)(CO)[C@@H](O)C(=O)NCCC(=O)[O-].[Na+] [V22, pantothenic acid(d) na salt]	synergized	variability enhancers	–	–
NCCc1cc(O)c(O)cc1O [V25, oxidopamine hydrochloride]	synergized	–	variability enhancers	–
C[C@]12CC[C@H]3[C@@H](CC[C@@]45O[C@@H]4C(O)=C(C#N)C[C@]35C)[C@@H]1CC[C@@H]2O [V26, trilostane]	synergized	–	variability enhancers	–
Cc1cn[nH]c1 [V27, fomepizole hydrochloride]	synergized	–	variability enhancers	–
NC(=O)C[S+]([O-])C(c1ccccc1)c1ccccc1 (centres unmarked) [V28, modafinil]	synergized	–	variability enhancers	–
Cc1cccc(C)c1N=C1NCCCS1 [V29, Xylazine hydrochloride]	synergized	–	variability enhancers	–
O=C(Nc1ccccc1)OCC(CN1CCCCC1)OC(=O)Nc1ccccc1 (centres unmarked) [V30, diperodon hydrochloride]	synergized	–	variability enhancers	–
Cc1cc(CC(=O)O)n(C)c1C(=O)c1ccc(Cl)cc1 [V31, zomepirac sodium]	synergized	–	variability enhancers	–
c1ccc2[nH]c(-c3cscn3)nc2c1 [V33, thiabendazole]	synergized	–	variability enhancers	–
Cc1cc(C(C#N)c2ccc(Cl)cc2)c(Cl)cc1NC(=O)c1cc(I)cc(I)c1O (centres unmarked) [V34, closantel]	synergized	–	variability enhancers	–
COc1ccc(-c2ccc3cc(C(=O)O)ccc3c2)cc1C12CC3CC(CC(C3)C1)C2 [V36, adapalene]	synergized	–	variability enhancers	–

Compound	synergy in reactivation of HIV-1 latency [1]	identified as variability enhancer (VE) in noise screen [2]	identified as variability enhancer (VE) in noise screen [2, 3]	identified as variability suppressor (VS) in noise screen ([2]; Pharmakon 1600 library, 10 uM, 24 hours, FIG. 12)
CC(C)(C)NC(=O)[C@H]1CC[C@H]2[C@@H]3CC[C@H]4NC(=O)C=C[C@]4(C)[C@H]3CC[C@]12C [V37, finasteride]	synergized	–	variability enhancers	–
CCN(CC)CCNC(=O)c1ccc(N)cc1 [V38, Procainamide hydrochloride]	synergized	–	variability enhancers	–
CC1=C(C(=O)O)N2C(=O)[C@@H](NC(=O)[C@H](N)c3ccc(O)cc3)[C@H]2SC1 [V40, cefadroxil]	synergized	–	variability enhancers	–
COc1cnc(NS(=O)(=O)c2ccc(N)cc2)nc1 [V41, sulfameter]	synergized	–	variability enhancers	–
Nc1ccc(S(=O)(=O)Nc2cnc3ccccc3n2)cc1 [V42, sulfaquinoxaline sodium]	synergized	–	variability enhancers	–
CC[C@H]1OC(=O)[C@H](C)[C@@H](O[C@H]2C[C@@](C)(OC)[C@@H](O)[C@H](C)O2)[C@H](C)[C@@H](O[C@@H]2O[C@H](C)C[C@H](N(C)C)[C@H]2O)[C@](C)(O)C[C@@H](C)CN(C)[C@H](C)[C@@H](O)[C@]1(C)O [V43, azithromycin]	synergized	–	variability enhancers	–
CO[C@@]1(NC(=O)Cc2cccs2)C(=O)N2C(C(=O)O)=C(COC(N)=O)CS[C@@H]21 [V46, cefoxitin sodium]	synergized	–	variability enhancers	–
CN1CCCN=C1COC(=O)C(O)(c1ccccc1)C1CCCCC1 (centres unmarked) [V47, oxyphencyclimine hydrochloride]	synergized	–	variability enhancers	–
CCN(CC)CC#CCOC(=O)C(O)(c1ccccc1)C1CCCCC1 (centres unmarked) [V48, oxybutynin chloride]	synergized	variability enhancers	–	–
C[N+]12CCC(CC1)C(OC(=O)C(O)(c1ccccc1)c1ccccc1)C2 (centres unmarked) [V49, clidinium bromide]	synergized	–	variability enhancers	–
CNCCC(Oc1ccc(C(F)(F)F)cc1)c1ccccc1 (centres unmarked) [V50, Fluoxetine hydrochloride]	synergized	variability enhancers	–	–
Cc1ccc(S(=O)(=O)NC(=O)NN2CCCCCC2)cc1 [V51, Tolazamide]	synergized	–	variability enhancers	–
COc1cc(C(=O)NCc2ccc(OCCN(C)C)cc2)cc(OC)c1OC [V52, trimethobenzamide hydrochloride]	synergized	–	variability enhancers	–
CCN(CC)CCNC(=O)c1cc(Cl)c(N)cc1OC [V53, Metoclopramide hydrochloride]	synergized	–	variability enhancers	–
Cc1cccc(N(C)C(=S)Oc2ccc3ccccc3c2)c1 [V54, tolnaftate]	synergized	–	variability enhancers	–
bleomycin [V66]	–	–	variability enhancers	–
meclocycline sulfosalicylate	–	–	–	variability suppressors
